How the values were obtained:
[1] = test system: Proteus Mirabilis; assay: Promoting wave test (bacterial bio-wave growth model); assay type: cell-based; settings: final concentration of 0.5% on LB plate, 37° C.
Description: The following experimental examples are used to illustrate the promoting wave function, low toxicity and effectiveness for preventing and treating the sexual disfunction of the compound of the present invention (the compound of formula (I)). • I. Promoting wave test of the compound of formula (I) • 1. Experimental materials and method: • 1.1 Samples: pure compound of formula (I) • 1.2 Experimental materials: […]
Strain: Proteus Mirabilis (which should comply with the following biological reaction characteristics: dynamics (+), urease (+), lactose (−), glucose (+), H2S (−), phenylalanine deaminase (+).
Culture medium: modified LB culture medium (the component of the composition are: trytones of 1%, yeast extract of 0.5%, sodium chloride 1%, glucose of 0.1%, TTC of 0.002% and pH=7.2˜7.4). • 1.3 Experimental method:
Experimental results and evaluation:
The experiment adopts a bio-wave model which is used to research the promoting wave function of the compound of formula (I). […] Toxicological test of the compound of formula (I), including: • 1. acute toxicity test: including tests of administrating medicine by oral, intravenous injection and maximum limit amount for administration; • 2. […]

[2] = test system: sexual disfunction; assay: Clinic tests in male patients with sexual disfunction; assay type: in vivo, human; settings: two weeks
Experimental: 32 examples of male patients were picked out, who had been repeatedly treated for sexual disfunction with current treatment method, but these treatments were failed, the patients are classified clinically into heavy, medium and light degree disease, separately administrated with N-acetyl-D-glucosamine in the form of capsule by oral (500 mg/day) and alcoholic solution (50 mg/1000 ml) by oral (10 ml/day), using two weeks as a period of treatment, and before and after the administration, and comparing the condition of the patient's symptom by detecting luteinizing hormone (LH), follicular stimulating hormone (FSH), prolactin (PRL), testosterone (T), estradiol (E2) and local blood flux. […] After treatment, the curative effect was steady and could be maintained for a long time.

[3] = test system: sexual disfunction; assay: Test for volunteers (voluntary patient with disfunction for more than ten years); assay type: in vivo, human; settings: one voluntary patient, 12 capsules (500 mg/grain) by oral in three days
[4] = 32 male patients, capsule 500 mg/day or alcoholic solution 10 ml/day by oral

**Q.** For CC(=O)N[C@@H]1[C@@H](O)[C@H](O)[C@@H](CO)O[C@H]1O [N-acetyl-D-glucosamine], which “promoting wave function (wave pattern of concentric rings compared with control)” value [1] is on record?
**A.** Its value is “many fine waves on each ring emerged”.

**Q.** And the cure rate [2, 4]?
**A.** The cure rate was 72%.

**Q.** What about the total effective rate [2, 4] of the same compound?
**A.** The total effective rate was 90%.

**Q.** What about the “patients in whom treatment failed” value ([2]; of 32 male patients, oral) of the same compound?
**A.** The value was 2 patients.

**Q.** And the “patients turned from heavy and medium degree into light degree” value ([2]; of 32 male patients, oral)?
**A.** Its value is 7 patient.

**Q.** What about the “patients who became normal after treatment” value ([2]; of 32 male patients, oral) of the same compound?
**A.** Its value is 23 patients.

**Q.** And the “duration of the effect” value [3]?
**A.** The value was “keep normal over two years”.

**Q.** And the “sexual function after treatment” value [3]?
**A.** The value was “sexual function was recovered to normal”.
